From ChEMBL document CHEMBL3137381, “MMV Box Onchocerca lienalis screening set” come the findings set out here.

Holding throughout (assay type): functional
The test system of assay [1] is Onchocerca lienalis. Description: MMV: Percent motility assay at a compound concentration of 1.25e-5 M. Activity score legend: 3: Active, 2: Moderately active; 1: Inactive, 0: Toxic. As to conditions: at 12.5 µM.
The test system of assay [2] is Onchocerca lienalis. Description: MMV: Percent motility assay at a compound concentration of 3.1e-6 M. Activity score legend: 3: Active, 2: Moderately active; 1: Inactive, 0: Toxic. To be noted: at 3.1 µM.
Assay [3] has as its system Onchocerca lienalis. Description: MMV: Percent motility assay at a compound concentration of 1.9e-7 M. Activity score legend: 3: Active, 2: Moderately active; 1: Inactive, 0: Toxic. As to conditions: at 0.19 µM.
Assay [4] concerns Onchocerca lienalis. Description: MMV: Percent motility assay at a compound concentration of 7.8e-7 M. Activity score legend: 3: Active, 2: Moderately active; 1: Inactive, 0: Toxic. To be noted: at 0.78 µM.

Turning to `CN(C)CCCNc1c2ccccc2nc2ccccc12`, the Motility in the assay on Onchocerca lienalis [1], in the assay with Onchocerca lienalis [2], with Onchocerca lienalis [3] and with Onchocerca lienalis [4] was 100% throughout.
Take `COc1ccc(-c2c(C)nn3c(N)c(C#N)cnc23)cc1OC`: the Motility with Onchocerca lienalis [1], in the assay with Onchocerca lienalis [2], in the assay on Onchocerca lienalis [3] and in the assay with Onchocerca lienalis [4] was 100% in each case.
As for `CSC1=NC(=Nc2c(C)cccc2C)C2(CCC(C(C)(C)C)CC2)N1c1ccc(Cl)cc1` (stereo not given), the Motility with Onchocerca lienalis [1], in the assay on Onchocerca lienalis [2], in the assay with Onchocerca lienalis [3] and in the assay on Onchocerca lienalis [4] was 100% in each case.
Consider `Cc1cc(C)cc(Nc2cc(C)nc3nc(C(F)(F)F)nn23)c1`, for which the Motility in the assay on Onchocerca lienalis [1], with Onchocerca lienalis [2], in the assay with Onchocerca lienalis [3] and in the assay on Onchocerca lienalis [4] was 100% each time.
With `O=C(NCC(c1ccsc1)N1CCCCCC1)c1ccc(C(F)(F)F)cc1` (stereo not given), the Motility in the assay on Onchocerca lienalis [1], in the assay on Onchocerca lienalis [2], in the assay with Onchocerca lienalis [3] and in the assay with Onchocerca lienalis [4] was 100% throughout.
For the compound `COc1ccc(-c2cc3c(SCC(=O)Nc4cc(C(F)(F)F)ccc4Cl)nccn3n2)cc1`, the Motility with Onchocerca lienalis [1], with Onchocerca lienalis [2], with Onchocerca lienalis [3] and in the assay on Onchocerca lienalis [4] was 100% in each case.
Regarding `Cc1ccc(-c2cc3c(SCC(=O)Nc4cc(C(F)(F)F)ccc4Cl)nccn3n2)cc1`, the Motility with Onchocerca lienalis [1], with Onchocerca lienalis [2], in the assay on Onchocerca lienalis [3] and in the assay on Onchocerca lienalis [4] was 100% each time.
For the compound `CCCCCC(=O)N1c2ccccc2N=C2CC(c3ccc(OC)c(OC)c3)CC(O)=C2C1c1ccc(C(F)(F)F)cc1` (stereo not given), the Motility in the assay on Onchocerca lienalis [1], in the assay on Onchocerca lienalis [2], with Onchocerca lienalis [3] and in the assay on Onchocerca lienalis [4] was 100% in each case.
Regarding `Cc1cc(Nc2ccc3ccccc3c2)n2ncnc2n1`, the Motility with Onchocerca lienalis [1], with Onchocerca lienalis [2], in the assay on Onchocerca lienalis [3] and in the assay with Onchocerca lienalis [4] was 100% in each case.
As to `Cc1cc(NCCN2CCCCC2)c2ccc3ccccc3c2n1`, the Motility in the assay with Onchocerca lienalis [1], in the assay with Onchocerca lienalis [2], in the assay on Onchocerca lienalis [3] and with Onchocerca lienalis [4] was 100% in each case.
Take `COc1ccc(-c2nc(NC(=O)CS(=O)(=O)c3ccc(F)cc3)sc2C)cc1`: the Motility with Onchocerca lienalis [1], in the assay with Onchocerca lienalis [2], in the assay on Onchocerca lienalis [3] and with Onchocerca lienalis [4] was 100% in each case.
In the case of `O=C(O)C1Cc2c([nH]c3ccccc23)C(c2ccc(Cl)cc2Cl)N1` (stereo not given), the Motility with Onchocerca lienalis [1], in the assay on Onchocerca lienalis [2], in the assay with Onchocerca lienalis [3] and in the assay on Onchocerca lienalis [4] was 100% each time.
As for `Cc1ccc(N2C(=O)C3C(C2=O)C2(c4ccccc4)C(=O)C3(c3ccccc3)C(c3ccccc3)=C2c2ccccc2)cc1` (stereo not given), the Motility in the assay with Onchocerca lienalis [1], in the assay with Onchocerca lienalis [2], in the assay on Onchocerca lienalis [3] and in the assay with Onchocerca lienalis [4] was 100% in each case.
In the case of `CCc1c(C)c(=N)c2ccccc2n1C.I`, the Motility in the assay with Onchocerca lienalis [1], with Onchocerca lienalis [2], in the assay on Onchocerca lienalis [3] and in the assay on Onchocerca lienalis [4] was 100% in each case.
On to `COc1cccc(NC(=O)[C@H](C(C)C)n2c(=O)[nH]c3ccccc3c2=O)c1`, for which the Motility in the assay with Onchocerca lienalis [1], in the assay with Onchocerca lienalis [2], with Onchocerca lienalis [3] and in the assay with Onchocerca lienalis [4] was 100% throughout.
In the case of `CCOC(=O)c1cn(CC)c2cc(N(C)CCc3ccc(OC)c(OC)c3)c(F)cc2c1=O`, the Motility in the assay with Onchocerca lienalis [1], with Onchocerca lienalis [2], with Onchocerca lienalis [3] and in the assay with Onchocerca lienalis [4] was 100% in each case.
`CC(C)(C)c1ccc(O)c(CNC2CCCCC2)c1`: the Motility with Onchocerca lienalis [1], in the assay on Onchocerca lienalis [2], in the assay on Onchocerca lienalis [3] and with Onchocerca lienalis [4] was 100% throughout.
For `O=[N+]([O-])c1ccc(C=NNc2nc3ccccc3[nH]2)cc1`, the Motility in the assay on Onchocerca lienalis [1], in the assay on Onchocerca lienalis [2], with Onchocerca lienalis [3] and in the assay on Onchocerca lienalis [4] was 100% throughout.
On to `COc1ccc(C2=C(c3ccc(OC)cc3)C3(c4ccccc4)C(=O)C2(c2ccccc2)C2C(=O)N(c4ccc(C)cc4)C(=O)C23)cc1` (stereo not given), for which the Motility with Onchocerca lienalis [1], in the assay on Onchocerca lienalis [2], in the assay on Onchocerca lienalis [3] and with Onchocerca lienalis [4] was 100% throughout.
As to `CCOC(=O)c1c(NC(=O)c2ccccc2)sc2c(O)c(CN(CC)CC)ccc12`, the Motility with Onchocerca lienalis [1], in the assay with Onchocerca lienalis [2], in the assay with Onchocerca lienalis [3] and in the assay with Onchocerca lienalis [4] was 100% throughout.
Consider `CCOC(=O)C1=C(c2ccccc2)N=c2sc(=Cc3cc(C)n(-c4ccc(F)cc4)c3C)c(=O)n2C1c1cccc(OC)c1OC` (stereo not given), for which the Motility in the assay with Onchocerca lienalis [1], with Onchocerca lienalis [2], in the assay with Onchocerca lienalis [3] and with Onchocerca lienalis [4] was 100% in each case.
For `CCC1(C)CC(CCNCc2ccccc2O)(c2ccc(C)cc2)CCO1` (stereo not given), the Motility in the assay with Onchocerca lienalis [1], with Onchocerca lienalis [2], with Onchocerca lienalis [3] and in the assay with Onchocerca lienalis [4] was 100% each time.
On to `Cc1cc(Nc2ccc(C)c(Cl)c2)n2nc(C(F)(F)F)nc2n1`, for which the Motility in the assay on Onchocerca lienalis [1], in the assay with Onchocerca lienalis [2], in the assay with Onchocerca lienalis [3] and in the assay on Onchocerca lienalis [4] was 100% in each case.
Take `Fc1ccc2[nH]c3c(NCCCN4CCOCC4)ncnc3c2c1`: the Motility in the assay with Onchocerca lienalis [1], with Onchocerca lienalis [2], in the assay with Onchocerca lienalis [3] and with Onchocerca lienalis [4] was 100% throughout.
As for `COc1ccc(C=C2SC(=N)N(c3ccccc3OC)C2=O)cc1`, the Motility in the assay on Onchocerca lienalis [1], in the assay on Onchocerca lienalis [2], with Onchocerca lienalis [3] and with Onchocerca lienalis [4] was 100% each time.
For `Cc1cccc(Nc2nc(N)c3ccccc3n2)c1.Cl`, the Motility in the assay with Onchocerca lienalis [1], in the assay on Onchocerca lienalis [2], in the assay with Onchocerca lienalis [3] and with Onchocerca lienalis [4] was 100% in each case.
Regarding `CCn1c(CN2CCN(Cc3ccccc3)CC2)nc2cc(NC(=O)c3cccs3)ccc21`, the Motility in the assay with Onchocerca lienalis [1], with Onchocerca lienalis [2], in the assay on Onchocerca lienalis [3] and in the assay with Onchocerca lienalis [4] was 100% in each case.
Turning to `COc1ccccc1CNC(=O)CCn1c(=O)[nH]c2ccccc2c1=O`, the Motility in the assay with Onchocerca lienalis [1], in the assay with Onchocerca lienalis [2], with Onchocerca lienalis [3] and with Onchocerca lienalis [4] was 100% each time.
As to `COc1cc(OC)c(N(C)C(=O)c2cc3c(s2)-c2ccccc2S(=O)(=O)C3)cc1Cl`, the Motility with Onchocerca lienalis [1], in the assay with Onchocerca lienalis [2], in the assay with Onchocerca lienalis [3] and with Onchocerca lienalis [4] was 100% in each case.
For the compound `Cl.Oc1ccccc1CNCC12CC3CC(CC(C3)C1)C2`, the Motility in the assay on Onchocerca lienalis [1], in the assay on Onchocerca lienalis [2], with Onchocerca lienalis [3] and in the assay with Onchocerca lienalis [4] was 100% each time.
Take `CNCCCNc1ccnc2cc(Cl)ccc12`: the Motility in the assay on Onchocerca lienalis [1], in the assay on Onchocerca lienalis [2], in the assay on Onchocerca lienalis [3] and with Onchocerca lienalis [4] was 100% throughout.
For the compound `COc1ccccc1CNC(=O)CCn1c(=O)[nH]c2ccsc2c1=O`, the Motility in the assay with Onchocerca lienalis [1], with Onchocerca lienalis [2], in the assay on Onchocerca lienalis [3] and in the assay with Onchocerca lienalis [4] was 100% throughout.
`COc1ccc(Br)cc1C1Nc2ccc3ccccc3c2C2=C1C(=O)CC(c1ccccc1)C2` (stereo not given): the Motility in the assay with Onchocerca lienalis [1] turned out to be 66.66%; in the assay on Onchocerca lienalis [2], 100%; in the assay on Onchocerca lienalis [3], 100%; with Onchocerca lienalis [4] it was 100%.
In the case of `Cc1cc(C=C2SC(=Nc3ccccc3)N(C3CCCC3)C2=O)c(C)n1-c1ccc(Cl)cc1`, the Motility in the assay on Onchocerca lienalis [1], with Onchocerca lienalis [2], in the assay on Onchocerca lienalis [3] and in the assay on Onchocerca lienalis [4] was 100% throughout.
On to `CC1CCN(Cc2ccc(NC(=O)c3cc4ccc5cccnc5c4[nH]3)cc2)CC1`, for which the Motility with Onchocerca lienalis [1], in the assay with Onchocerca lienalis [2], in the assay on Onchocerca lienalis [3] and in the assay with Onchocerca lienalis [4] was 100% each time.
Regarding `CCc1ccc(Nc2cc(C)c3ccc(O)cc3n2)cc1.Cl`, the Motility is reported as 66.66% with Onchocerca lienalis [1], 100% in the assay on Onchocerca lienalis [2], 100% in the assay on Onchocerca lienalis [3] and 100% in the assay on Onchocerca lienalis [4].
On to `CSc1ccccc1C(=O)Nc1nc(-c2ccccn2)cs1`, for which the Motility is 33.33% with Onchocerca lienalis [1], 100% in the assay on Onchocerca lienalis [2], 100% in the assay on Onchocerca lienalis [3] and 100% with Onchocerca lienalis [4].
Turning to `COc1ccc(C(C)=O)cc1N1C(=O)C2C(C1=O)C1(c3ccccc3)C(=O)C2(c2ccccc2)C(c2ccc(C)cc2)=C1c1ccc(C)cc1` (stereo not given), the Motility in the assay on Onchocerca lienalis [1], in the assay with Onchocerca lienalis [2], in the assay on Onchocerca lienalis [3] and in the assay on Onchocerca lienalis [4] was 100% each time.
With `CCCc1c(CC)c(=N)c2ccccc2n1C`, the Motility in the assay with Onchocerca lienalis [1], with Onchocerca lienalis [2], in the assay on Onchocerca lienalis [3] and with Onchocerca lienalis [4] was 100% in each case.
On to `CCOC(=O)c1cnc2c(C)cc(C)cc2c1Nc1ccc(OC)c(OC)c1`, for which the Motility in the assay on Onchocerca lienalis [1], in the assay with Onchocerca lienalis [2], in the assay with Onchocerca lienalis [3] and in the assay with Onchocerca lienalis [4] was 100% throughout.
